Measurements taken from the C3SDB collision cross section collection.

conditions: [M+H]+; instrument: TW; calibrated with polyalanine and drug standards

SMILES	collision cross section (N2) [Å²]
CC1(C)C(=O)[C@@H]2C[C@@]3(O)C4=CC(=O)O[C@@H](c5ccoc5)[C@]4(C)CCC3C(C)(C2=O)[C@H]1CC(=O)O (some centres not stated) [8-HYDROXYCARAPINIC ACID]	202.9
Cc1ccc2c(c1)CC[C@H]1CC(=O)CC[C@]21C [13-METHYL-4,4-BISNOR-8,11,13-PODOCARPATRIEN-3-ONE]	148.1
COc1ccc(-c2cc(=O)c3c(O)cc(O)cc3o2)cc1 [ACACETIN]	160.3
COc1ccc2c(c1)c(CC(=O)OCC(=O)O)c(C)n2C(=O)c1ccc(Cl)cc1 [ACEMETACIN]	191
CC(=O)Nc1ccc(OC(=O)c2ccccc2O)cc1 [ACETAMINOSALOL]	168.2
CC(=O)Nc1cc([As](=O)(O)O)ccc1O [ACETARSOL]	151.5
CC(=O)Nc1nnc(S(N)(=O)=O)s1 [ACETAZOLAMIDE]	140.7
O=c1ccc2cc(O[C@@H]3O[C@H](CO)[C@@H](O)[C@H](O)[C@H]3O)c(O)cc2o1 [AESCULIN]	174
CC[C@H]1[C@@H]2C[C@H]3[C@@H]4N(C)c5ccccc5[C@]45C[C@@H]([C@H]2[C@H]5O)N3[C@@H]1O [AJMALINE]	172.9
CCCSc1ccc2nc(NC(=O)OC)[nH]c2c1 [ALBENDAZOLE]	162
O=c1ncnc2[nH][nH]cc1-2 [ALLOPURINOL]	123
C=CCc1ccccc1OCC(O)CNC(C)C (configuration not stated) [ALPRENOLOL]	158.6
CN(C)c1nc(N(C)C)nc(N(C)C)n1 [ALTRETAMINE]	145.6
CC(=O)OCC(=O)[C@@]12OC3(CCCC3)O[C@@H]1C[C@H]1[C@@H]3CCC4=CC(=O)C=C[C@]4(C)[C@@]3(F)[C@@H](O)C[C@@]12C [AMCINONIDE]	214.9
CN1C2CCC1CC(OC(c1ccccc1)c1ccccc1N)C2 (configuration not stated) [AMINOBENZTROPINE]	180.6
CCC1(c2ccc(N)cc2)CCC(=O)NC1=O (configuration not stated) [AMINOGLUTETHIMIDE]	164.8
Nc1ccc(C(=O)NCC(=O)O)cc1 [AMINOHIPPURIC ACID]	155.3
Nc1nccs1 [AMINOTHIAZOLE]	117.2
Clc1ccc2c(c1)C(N1CCNCC1)=Nc1ccccc1O2 [AMOXAPINE]	171.2
CC1(C)S[C@@H]2[C@H](NC(=O)[C@H](N)c3ccc(O)cc3)C(=O)N2[C@H]1C(=O)O [AMOXICILLIN]	187.4
COc1cc(NS(C)(=O)=O)ccc1Nc1c2ccccc2nc2ccccc12 [AMSACRINE]	193.1
COc1ccc([C@@H](C)C(=O)c2ccc(O)cc2O)cc1 [ANGOLENSIN (R)]	162

SMILES	collision cross section (N2) [Å²]
COc1ccc(C(=O)N2CCCC2=O)cc1 [ANIRACETAM]	146.6
O=C1c2c(O)cccc2Cc2cccc(O)c21 [ANTHRALIN]	142.6
COc1cc(O)cc(OC)c1OC [ANTIAROL]	133.5
Cc1cc(=O)n(-c2ccccc2)n1C [ANTIPYRINE]	137.8
COc1cc2c(cc1OC)-c1c(oc3cc(O)cc(O)c3c1=O)CO2 [APOTOXICAROL]	173.8
COc1cc(OC)c(OC)cc1C=O [ASARYLALDEHYDE]	138.3
CC(C)NCC(O)COc1ccc(CC(N)=O)cc1 (configuration not stated) [ATENOLOL]	159
O=C(O)C1=CC(=C(c2ccc(O)c(C(=O)O)c2)c2ccc(O)c(C(=O)O)c2)C=CC1=O [AURIN TRICARBOXYLIC ACID]	197.6
C/C(=C(\CCOP(=O)(O)O)SC(=O)c1ccccc1)N(C=O)Cc1cnc(C)nc1N [BENFOTIAMINE]	192.7
O=C(Nc1ccc(C(=O)O)c(O)c1)c1ccccc1 [BENZOYLPAS]	156.3
COc1c(O)cc2c(c1O)[C@@H]1O[C@H](CO)[C@@H](O)[C@H](O)[C@H]1OC2=O [BERGENIN]	168.3
CCCCC(=O)O[C@]1(C(=O)CO)[C@@H](C)C[C@H]2[C@@H]3CCC4=CC(=O)C=C[C@]4(C)[C@@]3(F)[C@@H](O)C[C@@]21C [BETAMETHASONE VALERATE]	214
C[C@H]1C[C@H]2[C@@H]3CCC4=CC(=O)C=C[C@]4(C)[C@@]3(F)[C@@H](O)C[C@]2(C)[C@@]1(O)C(=O)CO [BETAMETHASONE]	186.7
O=C(O)CCNC(=O)c1ccccc1 [BETAMIPRON]	138.7
CC(C)(Oc1ccc(CCNC(=O)c2ccc(Cl)cc2)cc1)C(=O)O [BEZAFIBRATE]	177.3
COc1ccc(-c2coc3cc(O)cc(O)c3c2=O)cc1 [BIOCHANIN A]	160.9
OC(CCN1CCCCC1)(c1ccccc1)C1CC2C=CC1C2 (configuration not stated) [BIPERIDEN]	175.7
CC(C)(c1ccc(O)cc1)c1ccc(O)cc1 [BISPHENOL A]	147.1
CC1(C)CC2C1CC[C@]1(CBr)CCC3C(CC(=O)O)C(=O)O[C@@]32C1 (some centres not stated) [BROMO-3-HYDROXY-4-(SUCCIN-2-YL)-CARYOLANE gamma-LACTONE]	183.4
COc1cc2c(cc1OC)[C@@]13CCN4CC5=CCO[C@H]6CC(=O)N2[C@H]1[C@H]6[C@H]5C[C@H]43 [BRUCINE]	190.9
CCOc1ccc(NC(=O)CC(C)O)cc1 (configuration not stated) [BUCETIN]	152.5
CCCC(=O)Nc1ncnc2c1ncn2[C@@H]1O[C@@H]2COP(=O)(O)O[C@H]2[C@H]1OC(=O)CCC [BUCLADESINE]	215.3

SMILES	collision cross section (N2) [Å²]
CCCCNc1cc(C(=O)O)cc(S(N)(=O)=O)c1Oc1ccccc1 [BUMETANIDE]	185.1
CC(NC(C)(C)C)C(=O)c1cccc(Cl)c1 (configuration not stated) [BUPROPION]	157.5
CCCCN(CCCC)CCCOC(=O)c1ccc(N)cc1 [BUTACAINE]	179
Clc1ccc(CCC(Cn2ccnc2)Sc2c(Cl)cccc2Cl)cc1 (configuration not stated) [BUTOCONAZOLE]	186.5
Cn1c(=O)c2c(ncn2C)n(C)c1=O [CAFFEINE]	136.9
CCOc1nc2cccc(C(=O)OC(C)OC(=O)OC3CCCCC3)c2n1Cc1ccc(-c2ccccc2-c2nn[nH]n2)cc1 (configuration not stated) [CANDESARTAN CILEXTIL]	241.5
C[C@]12CCC(=O)C=C1C=C[C@@H]1[C@@H]2CC[C@@]2(C)[C@H]1CC[C@@]21CCC(=O)O1 [CANRENONE]	183
COC(=O)C[C@H]1C(C)(C)C(=O)[C@@H]2CC3C4=CC(=O)O[C@@H](c5ccoc5)[C@]4(C)CCC3[C@@]1(C)C2=O (some centres not stated) [CARAPIN]	206.1
COC(=O)N=N/C=C1\C=[N+]([O-])c2ccccc2N1O [CARBADOX]	153.9
CCCC(C)(COC(N)=O)COC(=O)NC(C)C (configuration not stated) [CARISOPRODOL]	149.1
COc1ccccc1OCCNCC(O)COc1cccc2[nH]c3ccccc3c12 (configuration not stated) [CARVEDILOL]	189.1
COc1cc(OC)c2c(c1)O[C@H](c1ccc(OC)c(OC)c1)[C@@H](O)C2 [CATECHIN TETRAMETHYLETHER]	174.4
C[C@@H]1CC[C@H]2C(C)(C)[C@H]3C[C@@]12CC[C@@]3(C)O [CEDROL]	145.9
CC1=C(O)C(=O)C=C2C1=CC=C1[C@@]2(C)CC[C@@]2(C)[C@@H]3C[C@](C)(C(=O)O)CC[C@]3(C)CC[C@]12C [CELASTROL]	205.6
Cc1ccc(-c2cc(C(F)(F)F)nn2-c2ccc(S(N)(=O)=O)cc2)cc1 [CELECOXIB]	186.1
CC1=C(C(=O)O)N2C(=O)[C@@H](NC(=O)[C@H](N)c3ccccc3)[C@H]2SC1 [CEPHALEXIN]	178.5
O=C(O)CCCc1ccc(N(CCCl)CCCl)cc1 [CHLORAMBUCIL]	168.7
CN1C(=O)CCS(=O)(=O)C1c1ccc(Cl)cc1 (configuration not stated) [CHLORMEZANONE]	158.2
CC(=O)Oc1ccc(Cl)c2cccnc12 [CHLOROACETOXYQUINOLINE]	141.1
CN(C)CCCN1c2ccccc2Sc2ccc(Cl)cc21 [CHLORPROMAZINE]	169.8

same assay, conditions: [M+Na]+; instrument: TW; calibrated with polyalanine and drug standards

SMILES	collision cross section (N2) [Å²]
CC(=O)N[C@@H]1[C@@H](O)[C@H](O)[C@@H](CO)O[C@H]1O [ACETYLGLUCOSAMINE]	153.5
CC(=O)NCCCCCC(=O)O [ACEXAMIC ACID]	141.4
C=CCS(=O)C[C@H](N)C(=O)O (some centres not stated) [ALLIIN]	134.5
OC[C@H]1O[C@@H](Oc2ccc(O)cc2)[C@H](O)[C@@H](O)[C@@H]1O [ARBUTIN]	164.4
C[C@H]1[C@H](C)CC[C@]2(C(=O)O)CC[C@]3(C)C(=CC[C@@H]4[C@@]5(C)C[C@@H](O)[C@H](O)[C@@](C)(CO)[C@@H]5CC[C@]43C)[C@H]12 [ASIATIC ACID]	233.5
CC[C@H](C)[C@H]1O[C@]2(C=C[C@@H]1C)C[C@@H]1C[C@@H](C/C=C(\C)[C@@H](O[C@H]3C[C@H](OC)[C@@H](O[C@H]4C[C@H](OC)[C@@H](O)[C@H](C)O4)[C@H](C)O3)[C@@H](C)/C=C/C=C3\CO[C@@H]4[C@H](O)C(C)=C[C@@H](C(=O)O1)[C@]34O)O2 [Abamectin B1A]	290.5

same assay, conditions: [M]+; instrument: TW; calibrated with polyalanine and drug standards

SMILES	collision cross section (N2) [Å²]
C=C1CC[C@H]2C(C)(C)CCC[C@]2(C)[C@H]1CC/C(C)=C/Cn1c[n+](C)c2ncnc(N)c21 [AGELASINE D]	212.2
CCCCCCCCCCCCCC[N+](C)(C)Cc1ccccc1 [BENZALKONIUM CHLORIDE C14]	205.7
